Test results reported in ChEMBL document CHEMBL1125546, “Novel 5-HT3 antagonists. Isoquinolinones and 3-aryl-2-pyridones” (J Med Chem, 1992).

Assays:
Canis familiaris [1] = experiment: Compound was evaluated for protection against cisplatin-induced emesis by measuring number of emetic episodes in dogs administered perorally at 0.1 mg/kg.; type: functional, Canis lupus familiaris; conditions: route oral
Canis familiaris [2] = experiment: Compound was evaluated for protection against cisplatin-induced emesis by measuring number of emetic episodes in dogs administered perorally at 0.3 mg/kg.; type: functional, Canis lupus familiaris; conditions: route oral
Canis familiaris [3] = experiment: Compound was evaluated for protection against cisplatin-induced emesis by measuring number of emetic episodes in dogs administered perorally at 1.0 mg/kg.; type: functional, Canis lupus familiaris; conditions: route oral
Canis familiaris [4] = experiment: Compound was evaluated for number of retches in dogs administered perorally at 0.3 mg/kg.; type: functional, Canis lupus familiaris; conditions: route oral
Canis familiaris [5] = experiment: Compound was evaluated for protection against cisplatin-induced emesis by measuring number of retches in dogs administered intravenously at 0.03 mg/kg.; type: functional, Canis lupus familiaris; conditions: route intravenous
Canis familiaris [6] = experiment: Compound was evaluated for protection against cisplatin-induced emesis by measuring number of retches in dogs administered intravenously at 0.1 mg/kg.; type: functional, Canis lupus familiaris; conditions: route intravenous
Canis familiaris [7] = experiment: Compound was evaluated for protection against cisplatin-induced emesis by measuring number of retches in dogs administered intravenously at 0.3 mg/kg.; type: functional, Canis lupus familiaris; conditions: route intravenous
Canis familiaris [8] = experiment: Compound was evaluated for protection against cisplatin-induced emesis by measuring number of retches in dogs administered perorally at 1.0 mg/kg.; type: functional, Canis lupus familiaris; conditions: route oral
Canis familiaris [9] = experiment: Compound was evaluated for protection against cisplatin-induced emesis by measuring number of emetic episodes in dogs administered intravenously at 0.3 mg/kg.; type: functional, Canis lupus familiaris; conditions: route intravenous
Canis familiaris [10] = experiment: Compound was evaluated for protection against cisplatin-induced emesis by measuring number of emetic episodes in dogs administered intravenously at 0.03 mg/kg.; type: functional, Canis lupus familiaris; conditions: route intravenous
Canis familiaris [11] = experiment: Compound was evaluated for protection against cisplatin-induced emesis by measuring number of emetic episodes in dogs administered intravenously at 0.1 mg/kg.; type: functional, Canis lupus familiaris; conditions: route intravenous
[12] = Compound was evaluated for protection against cisplatin-induced emesis by measuring number of retches in ferrets administered intravenously at 0.01 mg/kg.; type: functional, Mustela putorius furo; conditions: route intravenous
[13] = Compound was evaluated for protection against cisplatin-induced emesis by measuring number of retches in ferrets administered intravenously at 0.03 mg/kg.; type: functional, Mustela putorius furo; conditions: route intravenous
[14] = Compound was evaluated for protection against cisplatin-induced emesis by measuring number of retches in ferrets administered intravenously at 0.1 mg/kg.; type: functional, Mustela putorius furo; conditions: route intravenous
[15] = Compound was evaluated for protection against cisplatin-induced emesis by measuring number of retches in ferrets administered intravenously at 0.3 mg/kg.; type: functional, Mustela putorius furo; conditions: route intravenous
[16] = Compound was evaluated for protection against cisplatin-induced emesis by measuring number of retches in ferrets administered perorally at 0.1 mg/kg.; type: functional, Mustela putorius furo; conditions: route oral
[17] = Compound was evaluated for protection against cisplatin-induced emesis by measuring number of retches in ferrets administered perorally at 0.3 mg/kg.; type: functional, Mustela putorius furo; conditions: route oral
[18] = Compound was evaluated for protection against cisplatin-induced emesis by measuring number of retches in ferrets administered perorally at 1.0 mg/kg.; type: functional, Mustela putorius furo; conditions: route oral
[19] = Compound was evaluated for number of emetic episodes in ferrets administered intravenously at 0.01 mg/kg.; type: functional, Mustela putorius furo; conditions: route intravenous
[20] = Compound was evaluated for protection against cisplatin-induced emesis by measuring number of emetic episodes in ferrets administered intravenously at 0.03 mg/kg.; type: functional, Mustela putorius furo; conditions: route intravenous
[21] = Compound was evaluated for protection against cisplatin-induced emesis by measuring number of emetic episodes in ferrets administered intravenously at 0.1 mg/kg.; type: functional, Mustela putorius furo; conditions: route intravenous
[22] = Compound was evaluated for protection against cisplatin-induced emesis by measuring number of emetic episodes in ferrets administered intravenously at 0.3 mg/kg.; type: functional, Mustela putorius furo; conditions: route intravenous
[23] = Compound was evaluated for protection against cisplatin-induced emesis by measuring number of emetic episodes in ferrets administered perorally at 0.1 mg/kg.; type: functional, Mustela putorius furo; conditions: route oral
[24] = Compound was evaluated for protection against cisplatin-induced emesis by measuring number of emetic episodes in ferrets administered perorally at 0.3 mg/kg.; type: functional, Mustela putorius furo; conditions: route oral
[25] = Compound was evaluated for protection against cisplatin-induced emesis by measuring number of emetic episodes in ferrets administered perorally at 1.0 mg/kg.; type: functional, Mustela putorius furo; conditions: route oral
Rattus norvegicus = experiment: Inhibitory activity against Bezold-jarisch functional assay, inducing a transient bradycardia upon intravenous administration of 5-hydroxytryptamine-(10 ug/kg) in anesthetized rats.; conditions: read-out: ID50 (the source's name)
Canis familiaris [26] = experiment: Compound was evaluated for protection against cisplatin-induced emesis by measuring number of retches in dogs administered perorally at 0.1 mg/kg.; type: functional, Canis lupus familiaris; conditions: route oral
Canis familiaris [27] = experiment: Compound was evaluated for protection against cisplatin-induced emesis by measuring number of retches in dogs administered intravenously at 0.03 mg/kg; type: functional, Canis lupus familiaris; conditions: route intravenous
Canis familiaris [28] = experiment: Compound was evaluated for protection against cisplatin-induced emesis by measuring number of emetic episodes in dogs administered perorally at 0.3 mg/kg; type: functional, Canis lupus familiaris; conditions: route oral
Canis familiaris [29] = experiment: Compound was evaluated for protection against cisplatin-induced emesis by measuring number of emetic episodes in dogs administered perorally at 1.0 mg/kg; type: functional, Canis lupus familiaris; conditions: route oral
Canis familiaris [30] = experiment: No. of emetic episodes in dogs when administered perorally at 3.0 mg/kg; type: functional, Canis lupus familiaris; conditions: route oral
Canis familiaris [31] = experiment: Compound was evaluated for protection against cisplatin-induced emesis by measuring number of retches in dogs administered perorally at 0.3 mg/kg; type: functional, Canis lupus familiaris; conditions: route oral
Canis familiaris [32] = experiment: Compound was evaluated for protection against cisplatin-induced emesis by measuring number of retches in dogs administered perorally at 1.0 mg/kg; type: functional, Canis lupus familiaris; conditions: route oral
Canis familiaris [33] = experiment: Compound was evaluated for protection against cisplatin-induced emesis by measuring number of retches in dogs administered perorally at 3.0 mg/kg; type: functional, Canis lupus familiaris; conditions: route oral
Canis familiaris [34] = experiment: Compound was evaluated for protection against cisplatin-induced emesis by measuring number of retches in dogs administered intravenously at 0.3 mg/kg; type: functional, Canis lupus familiaris; conditions: route intravenous
Canis familiaris [35] = experiment: Compound was evaluated for protection against cisplatin-induced emesis by measuring number of emetic episodes in dogs administered intravenously at 0.3 mg/kg; type: functional, Canis lupus familiaris; conditions: route intravenous
Canis familiaris [36] = experiment: Compound was evaluated for protection against cisplatin-induced emesis by measuring number of emetic episodes in dogs administered intravenously at 0.03 mg/kg; type: functional, Canis lupus familiaris; conditions: route intravenous
Canis familiaris [37] = experiment: Compound was evaluated for protection against cisplatin-induced emesis by measuring number of emetic episodes in dogs administered intravenously at 0.1 mg/kg; type: functional, Canis lupus familiaris; conditions: route intravenous
[38] = Compound was evaluated for protection against cisplatin-induced emesis by measuring number of retches in ferrets administered perorally at 0.1 mg/kg; type: functional, Mustela putorius furo; conditions: route oral
[39] = Compound was evaluated for protection against cisplatin-induced emesis by measuring number of retches in ferrets administered perorally at 0.3 mg/kg; type: functional, Mustela putorius furo; conditions: route oral
[40] = Compound was evaluated for protection against cisplatin-induced emesis by measuring number of retches in ferrets administered perorally at 1.0 mg/kg; type: functional, Mustela putorius furo; conditions: route oral
[41] = Compound was evaluated for number of emetic episodes in ferrets administered intravenously at 0.1 mg/kg; type: functional, Mustela putorius furo; conditions: route intravenous
[42] = Compound was evaluated for number of emetic episodes in ferrets administered intravenously at 0.3 mg/kg; type: functional, Mustela putorius furo; conditions: route intravenous
[43] = Compound was evaluated for number of emetic episodes in ferrets administered intravenously at 1.0 mg/kg; type: functional, Mustela putorius furo; conditions: route intravenous
Mustela putorius furo [44] = experiment: Compound was evaluated for number of emetic episodes in ferrets administered perorally at 0.1 mg/kg; type: functional; conditions: route oral
Mustela putorius furo [45] = experiment: Compound was evaluated for number of emetic episodes in ferrets administered perorally at 0.3 mg/kg; type: functional; conditions: route oral
Mustela putorius furo [46] = experiment: Compound was evaluated for number of emetic episodes in ferrets administered perorally at 1.0 mg/kg; type: functional; conditions: route oral
Mus musculus = experiment: Acute lethal toxicity in mouse at 8.4 mg/kg when administered intravenously; value = 5/10; type: organism-based; design: dose 8.4 mg/kg, route intravenous; conditions: in vivo, iv

## Cc1[nH]cnc1Cn1ccc2ccc3ccccc3c2c1=O
Canis familiaris [1]
  No. of emetic episodes: 10.8
Canis familiaris [2]
  No. of emetic episodes: 4
Canis familiaris [3]
  No. of emetic episodes: 1.8
Canis familiaris [4]
  No. of retches: 27.8
Canis familiaris [5]
  No. of retches: 143.8
Canis familiaris [6]
  No. of retches: 53.8
Canis familiaris [7]
  No. of retches: 42.4
Canis familiaris [8]
  No. of retches: 26.3
Canis familiaris [9]
  No. of emetic episodes: 3.4
Canis familiaris [10]
  No. of emetic episodes: 10.2
Canis familiaris [11]
  No. of emetic episodes: 4.4
[12]
  No. of retches: 144.5
[13]
  No. of retches: 79
[14]
  No. of retches: 65
[15]
  No. of retches: 11.8
[16]
  No. of retches: 89.3
[17]
  No. of retches: 31.5
[18]
  No. of retches: 1
[19]
  No. of emetic episodes: 10.8
[20]
  No. of emetic episodes: 5
[21]
  No. of emetic episodes: 2
[22]
  No. of emetic episodes: 0
[23]
  No. of emetic episodes: 4.8
[24]
  No. of emetic episodes: 1.3
[25]
  No. of emetic episodes: 0
Rattus norvegicus
  ED50: 0.3 µg/kg
Canis familiaris [26]
  No. of retches: 133.2

## Cc1nccn1CC1CCc2c(c3ccccc3n2C)C1=O (stereo not drawn) [ONDANSETRON]
Canis familiaris [27]
  No. of retches: 118.8
Canis familiaris [28]
  No. of emetic episodes: 9
Canis familiaris [29]
  No. of emetic episodes: 2.8
Canis familiaris [30]
  No. of emetic episodes: 2
Canis familiaris [6]
  No. of retches: 9
Canis familiaris [31]
  No. of retches: 112.8
Canis familiaris [32]
  No. of retches: 29.8
Canis familiaris [33]
  No. of retches: 22.8
Canis familiaris [34]
  No. of retches: 35.4
Canis familiaris [35]
  No. of emetic episodes: 4.1
Canis familiaris [36]
  No. of emetic episodes: 10.5
Canis familiaris [37]
  No. of emetic episodes: 2.2
[38]
  No. of retches: 125.3
[39]
  No. of retches: 84.8
[40]
  No. of retches: 39.5
[41]
  No. of emetic episodes: 6.3
  No. of retches: 114
[42]
  No. of emetic episodes: 3.5
  No. of retches: 42.5
[43]
  No. of emetic episodes: 0
  No. of retches: 2.5
Mustela putorius furo [44]
  No. of emetic episodes: 8.5
Mustela putorius furo [45]
  No. of emetic episodes: 6.3
Mustela putorius furo [46]
  No. of emetic episodes: 2.3
Rattus norvegicus
  ED50: 0.86 µg/kg
Mus musculus
  Acute lethal toxicity: Partially active
